Results taken from publication PMC5218480 (PLoS ONE, 2017).

Test system: MV-4-11 cells
Experiment: Gene expression microarray analysis (Affymetrix PrimeView) and GSEA
Assay type: cell-based, human
Parameters: RFU PODN (11730768_x_at) / Fold change /veh PODN (11730768_x_at) / RFU LINC00158 (11744669_a_at) / Fold change /veh LINC00158 (11744669_a_at) / RFU DUSP10 (11751237_a_at) / Fold change /veh DUSP10 (11751237_a_at) / RFU ID3 (11757404_x_at) / Fold change /veh ID3 (11757404_x_at) / RFU PLEKHG5 (11737974_s_at) / Fold change /veh PLEKHG5 (11737974_s_at) / RFU LRRC4B (11730491_at) / Fold change /veh LRRC4B (11730491_at) / RFU GIMAP4 (11747438_a_at) / Fold change /veh GIMAP4 (11747438_a_at) / RFU KRT8 (11758183_x_at) / Fold change /veh KRT8 (11758183_x_at) / RFU CNN1 (11734310_a_at) / Fold change /veh CNN1 (11734310_a_at) / RFU VPS37D (11726825_at) / Fold change /veh VPS37D (11726825_at) / RFU C10orf10 (11716522_x_at) / Fold change /veh C10orf10 (11716522_x_at) / RFU KIR2DL2 /// KIR2DL4 /// KIR2DL5A /// KIR2DL5B /// KIR2DS1 /// KIR2DS2 /// KIR2DS3 /// KIR2DS4 /// KIR3DL3 /// KIR3DL3 /// KIR3DS1 (11738374_at) / Fold change /veh KIR2DL2 /// KIR2DL4 /// KIR2DL5A /// KIR2DL5B /// KIR2DS1 /// KIR2DS2 /// KIR2DS3 /// KIR2DS4 /// KIR3DL3 /// KIR3DL3 /// KIR3DS1 (11738374_at) / RFU C1QL1 (11718748_at) / Fold change /veh C1QL1 (11718748_at) / RFU TMPRSS4 (11747572_a_at) / Fold change /veh TMPRSS4 (11747572_a_at) / RFU HAMP (11756126_x_at) / Fold change /veh HAMP (11756126_x_at) / RFU RNFT2 (11725882_a_at) / Fold change /veh RNFT2 (11725882_a_at) / RFU NR4A2 (11747474_a_at) / Fold change /veh NR4A2 (11747474_a_at) / RFU ABCC12 (11746883_a_at) / Fold change /veh ABCC12 (11746883_a_at) / RFU TMEM136 (11760407_x_at) / Fold change /veh TMEM136 (11760407_x_at) / RFU CLDN22 /// WWC2 (11732394_at) / Fold change /veh CLDN22 /// WWC2 (11732394_at) / RFU HLA-DPB1 (11760878_x_at) / Fold change /veh HLA-DPB1 (11760878_x_at) / RFU SPINT1 (11716480_a_at) / Fold change /veh SPINT1 (11716480_a_at) / RFU GAP43 (11754022_s_at) / Fold change /veh GAP43 (11754022_s_at) / RFU A4GNT (11735810_at) / Fold change /veh A4GNT (11735810_at) / RFU PRB3 (11715151_x_at) / Fold change /veh PRB3 (11715151_x_at) / RFU TUBB4B (11761932_at) / Fold change /veh TUBB4B (11761932_at) / RFU CAPN14 (11732068_a_at) / Fold change /veh CAPN14 (11732068_a_at) / RFU TMCC2 (11721928_a_at) / Fold change /veh TMCC2 (11721928_a_at) / RFU IRGQ (11745062_a_at) / Fold change /veh IRGQ (11745062_a_at) / RFU FAM174B (11720279_a_at) / Fold change /veh FAM174B (11720279_a_at) / RFU TMPRSS4 (11748680_a_at) / Fold change /veh TMPRSS4 (11748680_a_at) / RFU FAM212B (11763350_a_at) / Fold change /veh FAM212B (11763350_a_at) / RFU PLEKHG5 (11743358_a_at) / Fold change /veh PLEKHG5 (11743358_a_at) / RFU ZSCAN30 (11745921_a_at) / Fold change /veh ZSCAN30 (11745921_a_at) / RFU CMKLR1 (11741424_a_at) / Fold change /veh CMKLR1 (11741424_a_at) / RFU LOC101060620 /// MAPK8IP1 (11723275_at) / Fold change /veh LOC101060620 /// MAPK8IP1 (11723275_at) / RFU SPTSSB (11747773_x_at) / Fold change /veh SPTSSB (11747773_x_at) / RFU PRSS12 (11739890_at) / Fold change /veh PRSS12 (11739890_at) / RFU BIN1 (11741810_x_at) / Fold change /veh BIN1 (11741810_x_at) / RFU WNT11 (11732464_a_at) / Fold change /veh WNT11 (11732464_a_at) / RFU C10orf10 (11716521_a_at) / Fold change /veh C10orf10 (11716521_a_at) / RFU C5orf56 (11738089_at) / Fold change /veh C5orf56 (11738089_at) / RFU CYB561 (11721691_x_at) / Fold change /veh CYB561 (11721691_x_at) / RFU ANKRD19P (11752326_a_at) / Fold change /veh ANKRD19P (11752326_a_at) / RFU OR2T12 /// OR2T33 /// OR2T8 (11738714_s_at) / Fold change /veh OR2T12 /// OR2T33 /// OR2T8 (11738714_s_at) / RFU VCAN (11748164_a_at) / Fold change /veh VCAN (11748164_a_at) / RFU JSRP1 (11732532_at) / Fold change /veh JSRP1 (11732532_at) / RFU KRTAP10-11 (11738290_x_at) / Fold change /veh KRTAP10-11 (11738290_x_at) / RFU MYO3A (11730013_a_at) / Fold change /veh MYO3A (11730013_a_at) / RFU EBF3 (11725865_a_at) / Fold change /veh EBF3 (11725865_a_at) / RFU CAMK2N1 (11719241_x_at) / Fold change /veh CAMK2N1 (11719241_x_at) / RFU C5orf56 (11738088_a_at) / Fold change /veh C5orf56 (11738088_a_at) / RFU OLFML3 (11715873_a_at) / Fold change /veh OLFML3 (11715873_a_at) / RFU LOC100653217 /// NTM (11731650_a_at) / Fold change /veh LOC100653217 /// NTM (11731650_a_at) / RFU MAPK11 (11762145_a_at) / Fold change /veh MAPK11 (11762145_a_at) / RFU FIZ1 (11724087_x_at) / Fold change /veh FIZ1 (11724087_x_at) / RFU OASL (11726364_x_at) / Fold change /veh OASL (11726364_x_at) / RFU SOX15 (11748057_x_at) / Fold change /veh SOX15 (11748057_x_at) / RFU CD79A (11719716_a_at) / Fold change /veh CD79A (11719716_a_at) / RFU HIST1H1D (11736915_at) / Fold change /veh HIST1H1D (11736915_at) / RFU CASKIN2 (11723855_a_at) / Fold change /veh CASKIN2 (11723855_a_at) / RFU LOC730098 (11760151_x_at) / Fold change /veh LOC730098 (11760151_x_at) / RFU OR4N2 (11742367_at) / Fold change /veh OR4N2 (11742367_at) / RFU PRRT2 (11749266_a_at) / Fold change /veh PRRT2 (11749266_a_at) / RFU SNX32 (11753110_a_at) / Fold change /veh SNX32 (11753110_a_at) / RFU CDHR5 (11726645_a_at) / Fold change /veh CDHR5 (11726645_a_at) / RFU RCAN1 (11760418_a_at) / Fold change /veh RCAN1 (11760418_a_at) / RFU FAM167A (11723789_a_at) / Fold change /veh FAM167A (11723789_a_at) / RFU FAM26E (11764081_at) / Fold change /veh FAM26E (11764081_at) / RFU ISYNA1 (11749810_s_at) / Fold change /veh ISYNA1 (11749810_s_at) / RFU ACY1 (11761880_at) / Fold change /veh ACY1 (11761880_at) / RFU 11764098_at / Fold change /veh 11764098_at / RFU SAMD14 (11745864_x_at) / Fold change /veh SAMD14 (11745864_x_at) / RFU NPB (11741838_a_at) / Fold change /veh NPB (11741838_a_at) / RFU TMPRSS6 (11731388_a_at) / Fold change /veh TMPRSS6 (11731388_a_at) / RFU KRTAP10-2 (11738614_at) / Fold change /veh KRTAP10-2 (11738614_at) / RFU ARHGAP8 /// PRR5-ARHGAP8 (11727945_x_at) / Fold change /veh ARHGAP8 /// PRR5-ARHGAP8 (11727945_x_at) / RFU KRTAP5-7 /// NADSYN1 (11734609_at) / Fold change /veh KRTAP5-7 /// NADSYN1 (11734609_at) / RFU RASL12 (11751679_a_at) / Fold change /veh RASL12 (11751679_a_at) / RFU CDKN2B (11736163_a_at) / Fold change /veh CDKN2B (11736163_a_at) / RFU PRF1 (11729649_at) / Fold change /veh PRF1 (11729649_at) / RFU, ZNF638 /// ZNF638-IT1 / Fold change vs veh, ZNF638 /// ZNF638-IT1 / RFU, PANK3 / Fold change vs veh, PANK3 / RFU, SH3YL1 / Fold change vs veh, SH3YL1 / RFU, ZEB2 / Fold change vs veh, ZEB2 / RFU, NRIP1 / Fold change vs veh, NRIP1 / RFU, PTTG1IP / Fold change vs veh, PTTG1IP / RFU, CAPN2 / Fold change vs veh, CAPN2 / RFU, MED14 / Fold change vs veh, MED14 / RFU, SNORA58 / Fold change vs veh, SNORA58 / RFU, C1orf63 / Fold change vs veh, C1orf63 / RFU, LRRFIP1 / Fold change vs veh, LRRFIP1 / RFU, NDUFAF7 / Fold change vs veh, NDUFAF7 / RFU, SLC12A2 / Fold change vs veh, SLC12A2 / RFU, IBTK / Fold change vs veh, IBTK / RFU, ESF1 / Fold change vs veh, ESF1 / Fold change vs veh, TMEM50B / RFU, TAOK1 / Fold change vs veh, TAOK1 / RFU, ACBD3 / Fold change vs veh, ACBD3 / RFU, TMA16 / Fold change vs veh, TMA16 / RFU, RWDD3 / Fold change vs veh, RWDD3 / RFU, BCAT1 / Fold change vs veh, BCAT1 / RFU, EDEM3 / Fold change vs veh, EDEM3 / RFU, TMEM33 / Fold change vs veh, TMEM33 / RFU, WDR75 / Fold change vs veh, WDR75 / RFU, AHCTF1 / Fold change vs veh, AHCTF1 / RFU, TFRC / Fold change vs veh, TFRC / RFU, ZDHHC17 / Fold change vs veh, ZDHHC17 / RFU, NOM1 / Fold change vs veh, NOM1 / RFU, ARL8B / Fold change vs veh, ARL8B / RFU, ZBTB11 / Fold change vs veh, ZBTB11 / RFU, TAMM41 / Fold change vs veh, TAMM41 / RFU, KIAA1704 /// LOC100996395 / Fold change vs veh, KIAA1704 /// LOC100996395 / RFU, ING1 / Fold change vs veh, ING1 / RFU, TRMT61B / Fold change vs veh, TRMT61B / RFU, FUBP3 / Fold change vs veh, FUBP3 / RFU, TP53 / Fold change vs veh, TP53 / RFU, TNKS2 / Fold change vs veh, TNKS2 / RFU, ZFP14 / Fold change vs veh, ZFP14 / RFU, ACTR2 / Fold change vs veh, ACTR2 / RFU, PPP3R1 / Fold change vs veh, PPP3R1 / RFU, PIK3R1 / Fold change vs veh, PIK3R1 / RFU, HNRNPA1 / Fold change vs veh, HNRNPA1 / RFU, RNF170 / Fold change vs veh, RNF170 / RFU, ZNF28 / Fold change vs veh, ZNF28 / RFU, RNGTT / Fold change vs veh, RNGTT / RFU, OGT / Fold change vs veh, OGT / RFU, BRD1 / Fold change vs veh, BRD1 / RFU, MARS / Fold change vs veh, MARS / RFU, ZNF655 / Fold change vs veh, ZNF655 / RFU, FAHD1 / Fold change vs veh, FAHD1 / RFU, BDP1 / Fold change vs veh, BDP1 / RFU, LRRCC1 / Fold change vs veh, LRRCC1 / RFU, ARID1A / Fold change vs veh, ARID1A / RFU, ZNF146 / Fold change vs veh, ZNF146 / RFU, ZNF330 / Fold change vs veh, ZNF330 / RFU, GPN3 / Fold change vs veh, GPN3 / RFU, C9orf123 / Fold change vs veh, C9orf123 / RFU, N4BP2L2 / Fold change vs veh, N4BP2L2 / RFU, ARFIP1 / Fold change vs veh, ARFIP1 / RFU, FAM179B / Fold change vs veh, FAM179B / RFU, BCL10 / Fold change vs veh, BCL10 / RFU, UHRF1BP1L / Fold change vs veh, UHRF1BP1L / RFU, BET1 / Fold change vs veh, BET1 / RFU, CNOT2 / Fold change vs veh, CNOT2 / RFU, ZNF268 / Fold change vs veh, ZNF268 / Fold change vs veh, ZNF507 / RFU, DGCR2 / Fold change vs veh, DGCR2 / RFU, WDSUB1 / Fold change vs veh, WDSUB1 / Fold change vs veh, HSP90B1 /// MIR3652 / RFU, ADSS / Fold change vs veh, ADSS / RFU, GK / Fold change vs veh, GK / RFU, ZNF148 / Fold change vs veh, ZNF148 / RFU, TAF9 / Fold change vs veh, TAF9 / RFU, SLC1A5 / Fold change vs veh, SLC1A5 / RFU, SLMO2 / Fold change vs veh, SLMO2 / RFU, ABCC4 / Fold change vs veh, ABCC4 / RFU, LOC101060439 /// RAP1B / Fold change vs veh, LOC101060439 /// RAP1B / RFU, RFX7 / Fold change vs veh, RFX7 / RFU, GTPBP10 / Fold change vs veh, GTPBP10 / RFU, CNEP1R1 / Fold change vs veh, CNEP1R1 / RFU, BIVM-ERCC5 /// ERCC5 / Fold change vs veh, BIVM-ERCC5 /// ERCC5 / RFU, ILF3 / Fold change vs veh, ILF3 / RFU 11762660_at / Fold change /veh 11762660_at / RFU VCAN (11757783_s_at) / Fold change /veh VCAN (11757783_s_at) / RFU DDX43 (11728927_at) / Fold change /veh DDX43 (11728927_at) / RFU KRT8 (11758188_x_at) / Fold change /veh KRT8 (11758188_x_at) / RFU NKD1 (11759106_at) / Fold change /veh NKD1 (11759106_at) / RFU SRD5A1 (11742802_a_at) / Fold change /veh SRD5A1 (11742802_a_at) / RFU TPSAB1 /// TPSB2 (11721975_s_at) / Fold change /veh TPSAB1 /// TPSB2 (11721975_s_at) / RFU GSTM3 (11746129_a_at) / Fold change /veh GSTM3 (11746129_a_at) / RFU IL23R (11737362_x_at) / Fold change /veh IL23R (11737362_x_at) / RFU TMEM51 (11727254_a_at) / Fold change /veh TMEM51 (11727254_a_at) / RFU PIWIL2 (11732686_x_at) / Fold change /veh PIWIL2 (11732686_x_at) / RFU ORM1 (11744905_x_at) / Fold change /veh ORM1 (11744905_x_at) / RFU CCDC152 (11743942_at) / Fold change /veh CCDC152 (11743942_at) / RFU ECM1 (11717891_a_at) / Fold change /veh ECM1 (11717891_a_at) / RFU IL23R (11748794_a_at) / Fold change /veh IL23R (11748794_a_at) / RFU TNFAIP8L3 (11732012_x_at) / Fold change /veh TNFAIP8L3 (11732012_x_at) / RFU MBOAT4 (11741988_at) / Fold change /veh MBOAT4 (11741988_at) / RFU 11764193_at / Fold change /veh 11764193_at / RFU TMEM53 (11763286_at) / Fold change /veh TMEM53 (11763286_at) / RFU MAGEB2 (11727129_at) / Fold change /veh MAGEB2 (11727129_at) / RFU TMEM200A (11744735_a_at) / Fold change /veh TMEM200A (11744735_a_at) / RFU CCDC152 (11751479_a_at) / Fold change /veh CCDC152 (11751479_a_at) / RFU FAM211A (11726209_a_at) / Fold change /veh FAM211A (11726209_a_at) / RFU RGS16 (11746705_a_at) / Fold change /veh RGS16 (11746705_a_at) / RFU VCAN (11755009_s_at) / Fold change /veh VCAN (11755009_s_at) / RFU RHOB (11743442_s_at) / Fold change /veh RHOB (11743442_s_at) / RFU RGS16 (11720943_a_at) / Fold change /veh RGS16 (11720943_a_at) / RFU RGS16 (11720944_at) / Fold change /veh RGS16 (11720944_at) / RFU, VPS4B / Fold change vs veh, VPS4B / RFU, CREB1 / Fold change vs veh, CREB1 / RFU, DNAJC13 / Fold change vs veh, DNAJC13 / RFU, GNAQ / Fold change vs veh, GNAQ / RFU, CDK5R1 / Fold change vs veh, CDK5R1 / RFU, ZRANB3 / Fold change vs veh, ZRANB3 / RFU, CUL4A / Fold change vs veh, CUL4A / RFU, CCNY / Fold change vs veh, CCNY / RFU, UFL1 / Fold change vs veh, UFL1 / RFU, COG3 / Fold change vs veh, COG3 / RFU, DIAPH2 / Fold change vs veh, DIAPH2 / RFU, SKA2 / Fold change vs veh, SKA2 / RFU, AFF3 / Fold change vs veh, AFF3 / RFU, LMF1 / Fold change vs veh, LMF1 / RFU, IPO11 / Fold change vs veh, IPO11 / RFU, DFFB / Fold change vs veh, DFFB / RFU, FOXP1 / Fold change vs veh, FOXP1 / RFU, CARD8 / Fold change vs veh, CARD8 / RFU, STRN3 / Fold change vs veh, STRN3 / RFU, ADK / Fold change vs veh, ADK / RFU, RASSF2 / Fold change vs veh, RASSF2 / RFU, WIPF1 / Fold change vs veh, WIPF1 / RFU, LARP1B / Fold change vs veh, LARP1B / RFU, RASA1 / Fold change vs veh, RASA1 / RFU, RB1 / Fold change vs veh, RB1 / RFU, PPFIA1 / Fold change vs veh, PPFIA1 / RFU, MAT2A / Fold change vs veh, MAT2A / RFU, CCT5 / Fold change vs veh, CCT5 / RFU, WDR92 / Fold change vs veh, WDR92 / RFU, CUX1 / Fold change vs veh, CUX1 / RFU, TTC7A / Fold change vs veh, TTC7A / RFU, TMEM135 / Fold change vs veh, TMEM135 / RFU, DEPTOR / Fold change vs veh, DEPTOR / RFU, CPM / Fold change vs veh, CPM / RFU, DNAJB6 / Fold change vs veh, DNAJB6 / RFU, CACNA2D3 / Fold change vs veh, CACNA2D3 / RFU, DTX4 / Fold change vs veh, DTX4 / RFU, TFCP2 / Fold change vs veh, TFCP2 / RFU, GMCL1 /// GMCL1P1 / Fold change vs veh, GMCL1 /// GMCL1P1 / RFU, AEBP2 / Fold change vs veh, AEBP2 / RFU, SNHG1 /// SNORD22 /// SNORD25 /// SNORD26 /// SNORD27 /// SNORD28 /// SNORD29 /// SNORD31 / Fold change vs veh, SNHG1 /// SNORD22 /// SNORD25 /// SNORD26 /// SNORD27 /// SNORD28 /// SNORD29 /// SNORD31 / Fold change (Aza/veh), C12orf56 (ProbeSet 11735607_a_at) / Fold change (ACY-1035/veh), C12orf56 (ProbeSet 11735607_a_at) / Fold change (Aza/veh), FGFR1OP (ProbeSet 11751329_s_at) / Fold change (ACY-1035/veh), FGFR1OP (ProbeSet 11751329_s_at) / Fold change (Aza/veh), VPS36 (ProbeSet 11739960_a_at) / Fold change (ACY-1035/veh), VPS36 (ProbeSet 11739960_a_at) / RFU SYPL1 (11715823_x_at) / Fold change /veh SYPL1 (11715823_x_at) / RFU IGFBP7 (11715501_s_at) / Fold change /veh IGFBP7 (11715501_s_at) / RFU REEP3 (11722064_at) / Fold change /veh REEP3 (11722064_at) / RFU IGLL1 (11728026_x_at) / Fold change /veh IGLL1 (11728026_x_at): dose or concentration left out as unconfirmed
Details: ProbeSet 11743286_at; LIST D

## Nc1ncn([C@@H]2O[C@H](CO)[C@@H](O)[C@H]2O)c(=O)n1 [azacitidine]
  RFU, DTX4: 164.39 RFU
